Experiment: xn = mol fraction of the nth substance listed

CCCCCC[n+]1ccn(C)c1.O=S(=O)([N-]S(=O)(=O)C(F)(F)F)C(F)(F)F + C1CCOC1
298.15 K, 100 kPa
Settings | electrical conductivity [S/m]
x1 = 0.0649 | 0.9
x1 = 0.09702 | 1.1
x1 = 0.1393 | 1
x1 = 0.194 | 1.3
x1 = 0.2742 | 0.9

CCCCCCCC(=O)[O-].c1c[nH+]c[nH]1 + CC#N
101.3 kPa
Settings | viscosity [mPa·s]
293.15 K, x2 = 0.298 | 37.82
293.15 K, x2 = 0.499 | 17.94
293.15 K, x2 = 0.5995 | 10.6
293.15 K, x2 = 0.8996 | 1.201
303.15 K, x2 = 0 | 56.48
303.15 K, x2 = 0.1044 | 45.4
303.15 K, x2 = 0.5995 | 9.6
308.15 K, x2 = 0.499 | 12.8
318.15 K, x2 = 0.298 | 18.21
318.15 K, x2 = 0.4005 | 14.1
323.15 K, x2 = 0.499 | 10.2
323.15 K, x2 = 0.5995 | 7.6

CCCCCC[n+]1ccn(C)c1.O=S(=O)([N-]S(=O)(=O)C(F)(F)F)C(F)(F)F + CC#N
298.15 K, 100 kPa
Settings | electrical conductivity [S/m]
x1 = 0.03801 | 3.3
x1 = 0.0581 | 3.7
x1 = 0.08404 | 4
x1 = 0.1205 | 3.6
x1 = 0.1763 | 2.8

CCCCCC[n+]1ccn(C)c1.[Br-] + CC#N
viscosity [mPa·s], 101 kPa
Settings | 288.15 K | 298.15 K | 308.15 K | 318.15 K
x1 = 0.004174 | 0.403 | 0.364 | 0.333 | 0.306
x1 = 0.008131 | 0.424 | 0.383 | 0.35 | 0.322
x1 = 0.01172 | 0.424 | 0.389 | 0.371 | 0.342

CCCCCC[n+]1ccn(C)c1.[Br-] + CC(=O)Oc1ccccc1C(=O)O + CC#N
viscosity [mPa·s], 101 kPa
Settings | 288.15 K | 298.15 K | 308.15 K | 318.15 K
x2 = 0, x1 = 0.004174 | 0.403 | 0.364 | 0.333 | 0.306
x2 = 0, x1 = 0.008131 | 0.424 | 0.383 | 0.35 | 0.322
x2 = 0, x1 = 0.01172 | 0.424 | 0.389 | 0.371 | 0.342

OC[C@H]1O[C@@H](O[C@H]2[C@H](O)[C@@H](O)C(O)O[C@@H]2CO)[C@H](O)[C@@H](O)[C@@H]1O (stereo not given in full) + CC(=O)[O-].CC[n+]1ccn(C)c1
100 kPa
Settings | viscosity [mPa·s]
292.4 K, x1 = 0.0255 | 339
302.1 K, x1 = 0.08067 | 921
312.5 K, x1 = 0.004998 | 61
312.5 K, x1 = 0.01515 | 73
322.6 K, x1 = 0.01515 | 45
322.6 K, x1 = 0.08067 | 207
332.2 K, x1 = 0.0255 | 39
332.2 K, x1 = 0.08067 | 123
342.5 K, x1 = 0.004998 | 20

Cn1ccnc1 + CC(=O)[O-].CC[n+]1ccn(C)c1 + CCOC(C)=O
298.15 K, 101 kPa
Settings | electrical conductivity [S/m] | viscosity [mPa·s]
x2 = 0, x1 = 0.5 | – | 0.93
x2 = 0.09996, x1 = 0.45 | 0.259 | 1.32
x2 = 0.2001, x1 = 0.4 | 0.444 | 2.05
x2 = 0.3, x1 = 0.35 | 0.61 | 3.17
x2 = 0.3995, x1 = 0.3003 | 0.724 | 5.06
x2 = 0.5003, x1 = 0.2498 | 0.795 | 7.59
x2 = 0.598, x1 = 0.201 | 0.776 | 12.8
x2 = 0.7028, x1 = 0.1486 | 0.697 | 21.4
x2 = 0.8002, x1 = 0.09992 | 0.578 | 37.1
x2 = 0.8978, x1 = 0.0511 | 0.452 | 67.4

CC(=O)[O-].C[NH+]1CCOCC1 + CC(=O)[O-].Cn1cc[nH+]c1
Settings | electrical conductivity [S/m]
298.15 K, 100 kPa, x2 = 0.71 | 0.274

CCCCCC[n+]1ccn(C)c1.O=S(=O)([N-]S(=O)(=O)C(F)(F)F)C(F)(F)F + CC(C)=O
298.15 K, 100 kPa
Settings | electrical conductivity [S/m]
x1 = 0.0527 | 2.6
x1 = 0.07996 | 3.1
x1 = 0.1149 | 3.1
x1 = 0.163 | 2.4
x1 = 0.2325 | 2
